Values quoted from earlier work as cited in patent US9082274B2, “Odor generation alarm and method for informing unusual situation” (priority 2008, dated 2015).
Read-outs that look alike come from different tables or passages of the source.

Tests used:
[1] = system: rats; settings: exposed for four hours
[2] = system: domestic rabbits; settings: AIT diluted to 0.1% to 10% with corn oil introduced into the eyes
[3] = system: person; settings: with respect to a person, ppm by amount of substance
[4] = system: person; settings: concentration in air, ppm by amount of substance
[5] = system: humans
[6] = system: mice; settings: oral
[7] = system: rabbits
[8] = system: mice; settings: exposed for four hours
[9] = system: skin, eyes
[10] = orally administered; route not printed in b8

| Structure (SMILES) | solubility in water | lethal inhaled concentration (inhaled LC50) [1] | ocular findings after instillation [2] | no observed effect concentration [3] | concentration at which a person becomes unable to tolerate the atmosphere / strength of smell [4] | concentration at which a person starts to notice a pungent odor [4] | concentration from which a person recognizes the smell of wasabi [4] | concentration at which a person becomes unable to tolerate the atmosphere / strength of smell ([4]; listed as allyl isothiocyanate) | lachrymatory effect [5] | orally administered lethal dose (LD50) [6] | acute dermal toxicity LD50 [7] | lethal inhaled concentration (inhaled LC50) [8] | effect when entering the eyes ([9]; eye contact) | effect when coming into contact with the skin ([9]; skin contact) | lethal dose (LD50) [10] |
| --- | --- | --- | --- | --- | --- | --- | --- | --- | --- | --- | --- | --- | --- | --- | --- |
| C=CCN=C=S [AIT, allyl isothiocyanate] | does not dissolve easily in water | 173 ppm | nothing more than transient edema and conjunctival hyperemia | 74.3 ppm | ≥ 10 ppm | ~1 ppm | around 5 ppm | 10 ppm | there is a lachrymatory effect on humans | 310 mg/kg | 88 mg/kg | 155 ppm |  |  |  |
| CS [methyl mercaptan] |  |  |  |  |  |  |  |  |  |  |  |  | reddening and pain when entering the eyes | reddening and pain of the skin | 2.4 mg/kg |
